The record followed here is patent publication US10149911B2, “Pharmaceutical composition containing hydroxamic acid derivative or salt thereof” (TOYAMA CHEMICAL CO., LTD., priority 2014, dated 2018).

Data set [1] concerns multidrug-resistant Pseudomonas aeruginosa clinical isolate (S-2838 strain). The data set can be described thus: Defense against mouse systemic infection using multidrug-resistant Pseudomonas aeruginosa. It is filed as in vivo. The note with it: male ICR mice, S-2838 strain i.p., 25 mg/kg. The procedure: The mice used were male ICR SPF mice (4 weeks old: 5 individuals per group).
To prepare a bacterial inoculum solution, a multidrug-resistant Pseudomonas aeruginosa clinical isolate (S-2838 strain) cultured overnight at 37° C. on a Mueller-Hinton agar plate was cultured for 5 hours in a cation-adjusted Mueller-Hinton medium and then diluted 10-fold with a 10% mucin/phosphate buffer solution to prepare the inoculum solution.
Infection was induced by the intraperitoneal inoculation of 0.5 mL of the inoculum solution (approximately 10^6 CFU/mouse) to each mouse. […] Three days after the infection, the number of survivors was recorded.

The subject of data set [2] is Pseudomonas aeruginosa clinical isolate (S-2838 strain). Description: Mouse model with urinary tract infection by multidrug-resistant Pseudomonas aeruginosa. It is filed as in vivo. The settings on record: female ICR mice, S-2838 strain via urethra, 12.5 mg/kg. How it is done: The mice used were female ICR SPF mice (5 weeks old: 5 individuals per group).
(§1) To prepare a bacterial inoculum solution, a Pseudomonas aeruginosa clinical isolate (S-2838 strain) was suspended in sterile saline.
Infection was induced by the inoculation of 0.2 mL of the inoculum solution (approximately 10^3 CFU/mouse) through the urethra of each mouse. […] The numbers of bacterial colonies of the next day of the infection in the kidneys were recorded, and an average thereof was calculated.

Data set [3] shares this test system. Description: Mouse model with pulmonary infection by multidrug-resistant Pseudomonas aeruginosa. It counts as in vivo. The settings on record: cyclophosphamide-treated male ICR mice, S-2838 strain intranasal, 25 mg/kg. How it is done:
The mice used were male ICR SPF mice (4.5 weeks old at the time of infection: 5 individuals per group). In order to achieve a transient compromised state, cyclophosphamide was intraperitoneally administered at a dose of 200 mg/kg to each mouse 4 days before injection.
as §1
Infection was induced by the inoculation of 0.05 mL of the inoculum solution (approximately 10^5 CFU/mouse) to each mouse intranasally. […] The numbers of bacterial colonies of the next day of the infection in the lungs were recorded, and an average thereof was calculated.

Data set [4] can be described thus: Solubility test in 10% CD or CD derivative solution. It counts as physicochemical. The note with it: thermodynamic from solid, room temperature. The procedure:
To 5 mL of a 10% CD or CD derivative solution, about 100 mg of Compound A monohydrate was added, and stirred at room temperature for 24 hours. To the solutions in which αCD, HPαCD, DMβCD and methyl-β-cyclodextrin were used, about 100 mg of Compound A monohydrate was added after 6 hours. After centrifugation (3000 rpm, 10 minutes), the supernatant was filtered with a filter, and the solubility was measured by the HPLC method.

As to `CNC(=O)[C@@](C)(C(=O)NO)N(C)C(=O)c1ccc(C#Cc2ccc([C@H](O)CO)cc2)cc1` [Compound A, (2S)-2-((4-((4-((1S)-1,2-dihydroxyethyl)phenyl)ethynyl)benzoyl)(methyl)amino)-N-hydroxy-N′,2-dimethylmalonamide], the “mice surviving 3 days after the bacterial inoculation” value in data set [1] was ≥ 60%. Besides, the “decrease in the intrarenal viable cell count compared to the control group” value in data set [2] was ≥ 2 log CFU/kidney. Besides, the “decrease in the intrapulmonary viable cell count compared to the control group” value in data set [3] is recorded as ≥ 2 log CFU/lung.

For `CNC(=O)[C@@](C)(C(=O)NO)N(C)C(=O)c1ccc(C#Cc2ccc([C@H](O)CO)cc2)cc1` [Compound A monohydrate, (2S)-2-((4-((4-((1S)-1,2-dihydroxyethyl)phenyl)ethynyl)benzoyl)(methyl)amino)-N-hydroxy-N′,2-dimethylmalonamide], the solubility at 24 h in data set [4] (10% DMβCD solution, aqueous with cosolvent or surfactant or cyclodextrin, 10% DM β CD solution) worked out at 16.6 mg/mL; in data set [4] (10% HPαCD solution, aqueous with cosolvent or surfactant or cyclodextrin, 10% HP α CD solution), 25.7 mg/mL; in data set [4] (10% HPβCD solution, aqueous with cosolvent or surfactant or cyclodextrin, 10% HP β CD solution), 11.6 mg/mL; in data set [4] (10% HPγCD solution, aqueous with cosolvent or surfactant or cyclodextrin, 10% HP γ CD solution) it was 8.8 mg/mL; in data set [4] (10% SBEβCD solution, aqueous with cosolvent or surfactant or cyclodextrin, 10% SBE β CD solution) it was 8.9 mg/mL; in data set [4] (10% αCD solution, aqueous with cosolvent or surfactant or cyclodextrin, 10% α CD solution) it was 30.2 mg/mL. The solubility at 24 h is 5.9 mg/mL in data set [4] (10% βCD solution, aqueous with cosolvent or surfactant or cyclodextrin, 10% β CD solution); 14.4 mg/mL in data set [4] (10% γCD solution, aqueous with cosolvent or surfactant or cyclodextrin, 10% γ CD solution); 4.7 mg/mL in data set [4] (aqueous with cosolvent or surfactant or cyclodextrin, 10% 2,3,6-Tri-O-methyl-β-cyclodextrin solution); 10 mg/mL in data set [4] (aqueous with cosolvent or surfactant or cyclodextrin, 10% 6-O-α-maltosyl-β-cyclodextrin solution); 11.9 mg/mL in data set [4] (aqueous with cosolvent or surfactant or cyclodextrin, 10% Hydroxyethyl-β-cyclodextrin solution); 17.5 mg/mL in data set [4] (aqueous with cosolvent or surfactant or cyclodextrin, 10% Methyl-β-cyclodextrin solution). In addition, the solubility at 24 h in data set [4] (water, None (no CD or CD derivative)) turned out to be 0.2 mg/mL.

As a reminder, the solubility is how much of the substance goes into solution per volume. A low value points to a poorly soluble substance.
